In this assay the test system is BDF1 mice, B16 melanoma ip, median survival T/C. As to the kind of experiment: NCI In Vivo Anticancer Drug Screen. Data for tumor model B16 Melanoma (intraperitoneal) in B6D2F1 (BDF1) mice. The settings on record: endpoint: median survival time, higher = longer survival. Here is the method:
The antitumor activity of compounds was measured in mice bearing transplantable tumors. Survival or tumor size were measured and the results are expressed as the measurement made in the treated group (T) divided by the measurement made in the vehicle treated control group (C). The tumor model used in this assay is B16 Melanoma (intraperitoneal) in B6D2F1 (BDF1) mice

[1] abbreviates: dose: 6.25 mg/kg/injection, schedule: Q01DX009 (ip), vehicle: saline with Tween-80.
Setting [2] is: dose: 100.0 mg/kg/injection, schedule: Q01DX009 (ip), vehicle: Klucel (hydroxypropylcellulose) (HPC).
Where [3] appears, read: dose: 200.0 mg/kg/injection, schedule: Q01DX009 (ip), vehicle: Klucel (hydroxypropylcellulose) (HPC).
The mark [4] stands for this setting: dose: 100.0 mg/kg/injection, schedule: Q01DX009 (ip), vehicle: saline with Tween-80.
The mark [5] stands for this setting: dose: 200.0 mg/kg/injection, schedule: Q01DX009 (ip), vehicle: saline with Tween-80.
Setting [6] is: dose: 6.25 mg/kg/injection, schedule: Q01DX009 (ip), vehicle: saline.
[7] abbreviates: dose: 25.0 mg/kg/injection, schedule: Q01DX009 (ip), vehicle: saline.

Toxic doses and inconclusive results are not listed.

In the case of `CCCCn1c(O)c(C=N)c(=O)n(CCCC)c1=O`, the T/C (dose: 3.12 mg/kg/injection, schedule: Q01DX009 (ip), vehicle: saline with Tween-80) was 109 % of control and the T/C under setting [1] was 97 % of control.

As to `CC(O)COc1ccc(OCc2ccccc2)cc1` (stereo not drawn), the T/C under setting [2] was 106 % of control; the T/C under setting [3] was 109 % of control; the T/C (dose: 400.0 mg/kg/injection, schedule: Q01DX009 (ip), vehicle: Klucel (hydroxypropylcellulose) (HPC)) was 100 % of control.

As for `CC(C)CC(NC(=O)C(CC(C)C)NC(=O)OCc1ccccc1)C(=O)O` (stereo not drawn), the T/C reads like this: (dose: 50.0 mg/kg/injection, schedule: Q01DX009 (ip), vehicle: saline with Tween-80) 97 % of control; under setting [4], 101 % of control; under setting [5], 92 % of control.

Turning to `CC(=O)Oc1cc2c3c(c1)CCCN3CCC2`, the T/C reads like this: (dose: 3.13 mg/kg/injection, schedule: Q01DX009 (ip), vehicle: saline with Tween-80) 90 % of control; under setting [1], 90 % of control; (dose: 15.0 micrograms/kg/injection, schedule: Q01DX009 (ip), vehicle: saline) 104 % of control; (dose: 30.0 micrograms/kg/injection, schedule: Q01DX009 (ip), vehicle: saline) 97 % of control; (dose: 60.0 micrograms/kg/injection, schedule: Q01DX009 (ip), vehicle: saline) 93 % of control; (dose: 250.0 micrograms/kg/injection, schedule: Q01DX009 (ip), vehicle: saline with Tween-80) 86 % of control. The T/C (dose: 500.0 micrograms/kg/injection, schedule: Q01DX009 (ip), vehicle: saline with Tween-80) is 86 % of control.

For `COC(=O)C(N)CCCCNc1ccc2c(cc1=O)C(NC(C)=O)CCc1cc(OC)c(OC)c(OC)c1-2` (stereo not drawn), the T/C (dose: 35.0 mg/kg/injection, schedule: Q01DX009 (ip), vehicle: saline) is 103 % of control; the T/C (dose: 53.0 mg/kg/injection, schedule: Q01DX009 (ip), vehicle: saline) was 106 % of control; the T/C (dose: 80.0 mg/kg/injection, schedule: Q01DX009 (ip), vehicle: saline) was 93 % of control; the T/C (dose: 120.0 mg/kg/injection, schedule: Q01DX009 (ip), vehicle: saline) was 88 % of control; the T/C (dose: 180.0 mg/kg/injection, schedule: Q01DX009 (ip), vehicle: saline) was 92 % of control.

Turning to `O=C(/C=C\c1ccccc1)/C=C/c1ccccc1`, the T/C runs as follows: under setting [4], 104 % of control; (dose: 100.0 mg/kg/injection, schedule: Q04DX003 (ip), vehicle: saline with Tween-80) 102 % of control; under setting [5], 96 % of control; (dose: 200.0 mg/kg/injection, schedule: Q04DX003 (ip), vehicle: saline with Tween-80) 100 % of control; (dose: 400.0 mg/kg/injection, schedule: Q01DX009 (ip), vehicle: saline with Tween-80) 92 % of control; (dose: 400.0 mg/kg/injection, schedule: Q04DX003 (ip), vehicle: saline with Tween-80) 102 % of control.

Turning to `COC1CC(CC2CCC(C)C(C(C)C(=O)O)O2)OC2(OC(C)(C3CCC(C)(C4OC(C5OC(O)(CO)C(C)CC5C)CC4C)O3)CC2C)C1C` (stereo not drawn), the T/C (dose: 0.31 mg/kg/injection, schedule: Q01DX009 (ip), vehicle: Klucel (hydroxypropylcellulose) (HPC)) is 102 % of control; the T/C (dose: 0.63 mg/kg/injection, schedule: Q01DX009 (ip), vehicle: Klucel (hydroxypropylcellulose) (HPC)) was 89 % of control; the T/C (dose: 1.25 mg/kg/injection, schedule: Q01DX009 (ip), vehicle: Klucel (hydroxypropylcellulose) (HPC)) was 92 % of control; the T/C (dose: 2.5 mg/kg/injection, schedule: Q01DX009 (ip), vehicle: Klucel (hydroxypropylcellulose) (HPC)) was 92 % of control.

For `COc1cc(CN(C)C2CCCCC2)cc(OC)c1OC`, the T/C (dose: 3.12 mg/kg/injection, schedule: Q01DX009 (ip), vehicle: saline) is 105 % of control; the T/C under setting [6] is 102 % of control; the T/C (dose: 12.5 mg/kg/injection, schedule: Q01DX009 (ip), vehicle: saline) was 95 % of control; the T/C under setting [7] is 91 % of control; the T/C (dose: 50.0 mg/kg/injection, schedule: Q01DX009 (ip), vehicle: saline) is 101 % of control.

`CCCCCCCC(=O)CCC`: the T/C by setting is: under setting [2], 105 % of control; under setting [3], 96 % of control.

For the molecule `COc1cccc2c1C(=O)c1c(O)c3c(c(O)c1C2=O)C[C@@](O)(/C(C)=N\O)C[C@@H]3OC1CC(N)C(O)C(C)O1` (stereo partly drawn), the T/C reads like this: (dose: 3.13 mg/kg/injection, schedule: Q01DX009 (ip), vehicle: water) 115 % of control; (dose: 6.25 mg/kg/injection, schedule: Q01DX001 (ip), vehicle: water) 91 % of control; (dose: 12.5 mg/kg/injection, schedule: Q01DX001 (ip), vehicle: water) 213 % of control; (dose: 12.5 mg/kg/injection, schedule: Q01DX009 (ip), vehicle: water) 187 % of control; (dose: 25.0 mg/kg/injection, schedule: Q01DX001 (ip), vehicle: water) 207 % of control; (dose: 50.0 mg/kg/injection, schedule: Q01DX001 (ip), vehicle: water) 158 % of control.

Regarding `Cc1c(C)c2c(c(C)c1O)CCC(C)(CCCC(C)CCCC(C)CCCC(C)C)O2` (stereo not drawn), the T/C by setting is: under setting [4], 95 % of control; under setting [5], 90 % of control.

`CN(C)CCC[N+]1([O-])c2ccccc2CCc2ccccc21`: the T/C is 97 % of control (dose: 4.68 mg/kg/injection, schedule: Q01DX009 (ip), vehicle: saline); 118 % of control (dose: 9.37 mg/kg/injection, schedule: Q01DX009 (ip), vehicle: saline); 95 % of control (dose: 18.75 mg/kg/injection, schedule: Q01DX009 (ip), vehicle: saline); 100 % of control (dose: 37.5 mg/kg/injection, schedule: Q01DX009 (ip), vehicle: saline); 96 % of control (dose: 75.0 mg/kg/injection, schedule: Q04DX003 (ip), vehicle: saline).

As for `CCCCN(C)N=Nc1ccc(CCCC(=O)OCC)cc1`, the T/C (dose: 1.56 mg/kg/injection, schedule: Q01DX009 (ip), vehicle: saline) is 97 % of control; the T/C (dose: 3.13 mg/kg/injection, schedule: Q01DX009 (ip), vehicle: saline) was 100 % of control; the T/C under setting [6] is 100 % of control.

With `C#CCOCC1CN(C)C(=O)O1` (stereo not drawn), the T/C under setting [7] is 109 % of control; the T/C (dose: 100.0 mg/kg/injection, schedule: Q01DX009 (ip), vehicle: saline) was 102 % of control; the T/C (dose: 200.0 mg/kg/injection, schedule: Q01DX009 (ip), vehicle: saline) was 109 % of control; the T/C (dose: 400.0 mg/kg/injection, schedule: Q01DX009 (ip), vehicle: saline) was 107 % of control.

`Cc1cc(=O)n2c3c(cc(C#N)cc13)OC2`: the T/C reads like this: (dose: 100.0 mg/kg/injection, schedule: Q04DX003 (ip), vehicle: Klucel (hydroxypropylcellulose) (HPC)) 92 % of control; (dose: 200.0 mg/kg/injection, schedule: Q04DX003 (ip), vehicle: Klucel (hydroxypropylcellulose) (HPC)) 95 % of control; (dose: 400.0 mg/kg/injection, schedule: Q04DX003 (ip), vehicle: Klucel (hydroxypropylcellulose) (HPC)) 92 % of control.

For `S=C1NC(c2ccccc2)NC(c2ccccc2)S1` (stereo not drawn), the T/C is 100 % of control (dose: 100.0 mg/kg/injection, schedule: Q01DX009 (ip), vehicle: other); 94 % of control (dose: 200.0 mg/kg/injection, schedule: Q01DX009 (ip), vehicle: other); 86 % of control (dose: 400.0 mg/kg/injection, schedule: Q01DX009 (ip), vehicle: other).

(Values after PubChem BioAssay AID192 (DTP/NCI, 2004).)
